Measured values reported in ChEMBL document CHEMBL1833797, “Microwave assisted synthesis and antimicrobial evaluation of new fused pyran derivatives bearing 2-morpholinoquinoline nucleus” (2011).
≈ marks a conversion by molar mass, not a printed value.

Tests used:
Streptococcus pneumoniae = assay: Antimicrobial activity against Streptococcus pneumoniae MTCC 1936 for 24 hrs by microdilution method; format: functional; conditions: MTCC 1936, 24 h
Clostridium tetani = assay: Antimicrobial activity against Clostridium tetani MTCC 449 for 24 hrs by microdilution method; format: functional; conditions: MTCC 449, 24 h
Bacillus subtilis = assay: Antimicrobial activity against Bacillus subtilis MTCC 441 for 24 hrs by microdilution method; format: functional; conditions: MTCC 441, 24 h
Salmonella typhi = assay: Antimicrobial activity against Salmonella typhi MTCC 98 for 24 hrs by microdilution method; format: functional, Salmonella enterica subsp. enterica serovar Typhi; conditions: Salmonella enterica, MTCC 98, 24 h
Vibrio cholerae = assay: Antimicrobial activity against Vibrio cholerae MTCC 3906 for 24 hrs by microdilution method; format: functional; conditions: MTCC 3906, 24 h
Escherichia coli = assay: Antimicrobial activity against Escherichia coli MTCC 443 for 24 hrs by microdilution method; format: functional; conditions: MTCC 443, 24 h
Aspergillus fumigatus = assay: Antifungal activity against Aspergillus fumigatus MTCC 3008 for 48 hrs by microdilution method; format: functional
Candida albicans = assay: Antifungal activity against Candida albicans MTCC 227 for 48 hrs by microdilution method; format: functional

Compound | MIC (Streptococcus pneumoniae) [µg/mL] | MIC (Clostridium tetani) [µg/mL] | MIC (Bacillus subtilis) [µg/mL] | MIC (Salmonella typhi) [µg/mL] | MIC (Vibrio cholerae) [µg/mL] | MIC (Escherichia coli) [µg/mL] | MIC (Aspergillus fumigatus; MTCC 3008, 48 h) [µg/mL] | MIC (Candida albicans; MTCC 227, 48 h) [µg/mL] | MIC (Aspergillus fumigatus) [µg/mL] | MIC (Candida albicans) [µg/mL]
COc1ccc2nc(N3CCOCC3)c(C3C(C#N)=C(N)Oc4cc(C)oc(=O)c43)cc2c1 (stereo not given) | 250 (≈ 560 µM) | 250 (≈ 560 µM) | 200 (≈ 448 µM) | 250 (≈ 560 µM) | 250 (≈ 560 µM) | 200 (≈ 448 µM) | 1000 (≈ 2240 µM) | 250 (≈ 560 µM) | – | –
N#CC1=C(N)OC2=C(C(=O)c3ccccc3C2=O)C1c1cc2ccccc2nc1N1CCOCC1 (stereo not given) | 500 (≈ 1080 µM) | 500 (≈ 1080 µM) | 500 (≈ 1080 µM) | 12.5 (≈ 26.9 µM) | 500 (≈ 1080 µM) | 200 (≈ 431 µM) | > 1000 | 100 (≈ 215 µM) | – | –
Cc1ccc2nc(N3CCOCC3)c(C3C(C#N)=C(N)Oc4cc(C)oc(=O)c43)cc2c1 (stereo not given) | 500 (≈ 1160 µM) | 200 (≈ 465 µM) | 500 (≈ 1160 µM) | 200 (≈ 465 µM) | 200 (≈ 465 µM) | 100 (≈ 232 µM) | 200 (≈ 465 µM) | 1000 (≈ 2320 µM) | – | –
COc1ccc2nc(N3CCOCC3)c(C3C(C#N)=C(N)Oc4c3ccc3ccccc43)cc2c1 (stereo not given) | 250 (≈ 538 µM) | 250 (≈ 538 µM) | 250 (≈ 538 µM) | 100 (≈ 215 µM) | 200 (≈ 431 µM) | 200 (≈ 431 µM) | 1000 (≈ 2150 µM) | 100 (≈ 215 µM) | – | –
NYSTATIN | – | – | – | – | – | – | – | – | 100 | 100
CCn1cc(C(=O)O)c(=O)c2cc(F)c(N3CCNCC3)cc21 [NORFLOXACIN] | 10 (≈ 31.3 µM) | 50 (≈ 157 µM) | 100 (≈ 313 µM) | 10 (≈ 31.3 µM) | 10 (≈ 31.3 µM) | 10 (≈ 31.3 µM) | – | – | – | –
Cc1ccc2nc(N3CCOCC3)c(C3C(C#N)=C(N)Oc4c3ccc3ccccc43)cc2c1 (stereo not given) | 500 (≈ 1110 µM) | 500 (≈ 1110 µM) | 500 (≈ 1110 µM) | 250 (≈ 557 µM) | 12.5 (≈ 27.9 µM) | 200 (≈ 446 µM) | 500 (≈ 1110 µM) | > 1000 | – | –
N#CC1=C(N)OC2=C(C(=O)CCC2)C1c1cc2ccccc2nc1N1CCOCC1 (stereo not given) | 100 (≈ 248 µM) | 250 (≈ 621 µM) | 100 (≈ 248 µM) | 250 (≈ 621 µM) | 250 (≈ 621 µM) | 250 (≈ 621 µM) | > 1000 | 1000 (≈ 2480 µM) | – | –
COc1ccc2nc(N3CCOCC3)c(C3C(C#N)=C(N)OC4=C3C(=O)CCC4)cc2c1 (stereo not given) | 250 (≈ 578 µM) | 500 (≈ 1160 µM) | 250 (≈ 578 µM) | 200 (≈ 462 µM) | 250 (≈ 578 µM) | 200 (≈ 462 µM) | 1000 (≈ 2310 µM) | 500 (≈ 1160 µM) | – | –
Cc1cc2c(c(=O)o1)C(c1cc3ccccc3nc1N1CCOCC1)C(C#N)=C(N)O2 (stereo not given) | 200 (≈ 480 µM) | 100 (≈ 240 µM) | 200 (≈ 480 µM) | 100 (≈ 240 µM) | 100 (≈ 240 µM) | 62.5 (≈ 150 µM) | 200 (≈ 480 µM) | 1000 (≈ 2400 µM) | – | –
O=C(N[C@H](CO)[C@H](O)c1ccc([N+](=O)[O-])cc1)C(Cl)Cl [CHLORAMPHENICOL] | 50 (≈ 155 µM) | 50 (≈ 155 µM) | 50 (≈ 155 µM) | 50 (≈ 155 µM) | 50 (≈ 155 µM) | 50 (≈ 155 µM) | – | – | – | –
COc1ccc2nc(N3CCOCC3)c(C3C(C#N)=C(N)OC4=C3C(=O)CC(C)(C)C4)cc2c1 (stereo not given) | 100 (≈ 217 µM) | 500 (≈ 1090 µM) | 100 (≈ 217 µM) | 500 (≈ 1090 µM) | 500 (≈ 1090 µM) | 500 (≈ 1090 µM) | 100 (≈ 217 µM) | 1000 (≈ 2170 µM) | – | –
N#CC1=C(N)Oc2c(c(=O)oc3ccccc23)C1c1cc2ccccc2nc1N1CCOCC1 (stereo not given) | 250 (≈ 553 µM) | 200 (≈ 442 µM) | 250 (≈ 553 µM) | 100 (≈ 221 µM) | 250 (≈ 553 µM) | 200 (≈ 442 µM) | 500 (≈ 1110 µM) | 500 (≈ 1110 µM) | – | –
CC1(C)CC(=O)C2=C(C1)OC(N)=C(C#N)C2c1cc2ccccc2nc1N1CCOCC1 (stereo not given) | 500 (≈ 1160 µM) | 250 (≈ 581 µM) | 200 (≈ 465 µM) | 200 (≈ 465 µM) | 250 (≈ 581 µM) | 250 (≈ 581 µM) | 1000 (≈ 2320 µM) | 500 (≈ 1160 µM) | – | –
Cc1ccc2nc(N3CCOCC3)c(C3C(C#N)=C(N)OC4=C3C(=O)c3ccccc3C4=O)cc2c1 (stereo not given) | 100 (≈ 209 µM) | 250 (≈ 522 µM) | 200 (≈ 418 µM) | 100 (≈ 209 µM) | 250 (≈ 522 µM) | 250 (≈ 522 µM) | > 1000 | > 1000 | – | –
